Reference: publication PMC12664589 (Journal of Structural Biology: X, 2025)

target: CpNce103p (Candida parapsilosis, UniProt G8B6R8); assay: biochemical; assay type: biochemical; details: not given

Row | SMILES | Ki [µM]
1 | NS(=O)(=O)C(F)(F)F [Compound 16, Trifluoromethanesulfonamide] | 2.2
2 | NS(=O)(=O)c1ccc([N+](=O)[O-])cc1 [Compound 13, 4-Nitrobenzenesulfonamide] | 188
3 | C#CCCS(N)(=O)=O [Compound 4, but-3-yne-1-sulfonamide] | 933
4 | NCc1ccc(S(N)(=O)=O)cc1 [Compound 2, 4-(aminomethyl)benzenesulfonamide] | 3170
5 | Nc1ccc(S(N)(=O)=O)cc1 [Compound 9, Sulfanilamide] | 825
6 | NS(=O)(=O)c1ccccc1 [Compound 5, Benzenesulfonamide] | 922
7 | [N-]=[N+]=NCC(=O)NCCc1ccc(S(N)(=O)=O)cc1 [Compound 10, 2-azido-N-(4-sulfamoylphenethyl)acetamide] | 1510
8 | NN=C(c1ccccc1)c1ccccc1 [Compound 7, Benzophenone hydrazone] | 302
9 | NS(=O)(=O)c1cc(C(=O)O)c(NCc2ccccc2)cc1Cl [Compound 14, 2-(benzylamino)-4-chloro-5-sulfamoylbenzoic acid] | 377
10 | N[C@@H](Cc1c[nH]c2ccccc12)C(=O)O [Compound 15, L-Tryptophan] | 842
11 | O=[N+]([O-])c1ccccc1S(=O)(=O)Cl [Compound 3, 2-Nitrobenzenesulfonyl chloride] | 869

same assay, conditions: pH 7.5; read-out: Ki

Row | SMILES | Ki [µM]
12 | NS(N)(=O)=O [Compound 8, Sulfamide] | 1600
